According to patent US20050197350A1, “Novel quinoline, tetrahydroquinazoline, and pyrimidine derivatives and methods of treatment related to the use thereof” (TAISHO PHARMACEUTICAL CO., LTD., priority 2003, published 2005):
pIC50: −log10 of the molar value. Where a name gives a salt, the structure may show the parent alone.

These molecules were tested against MCH receptor (Homo sapiens, UniProt Q99705) (assay: High throughput functional screening FLIPR/FDSS6000 (intracellular Ca2+ evoked by MCH)). Conditions: FLIPR/FDSS, antagonist activity vs 50 nM MCH; class by percent of control at 10^−7 M or IC50; read-out: class.
Format: cell-based
In short: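 For antagonist testing, compound-treated cells (30 min, 37 °C) were stimulated with 50 nM MCH and intracellular Ca2+ followed by Fluo4 fluorescence on FLIPR/FDSS6000. Receptor was a constitutively active, non-endogenous MCH receptor; dye loading 4 μM Fluo4-AM, 1 h, 37 °C.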

SMILES	pIC50
CCN(C(=O)N[C@H]1CC[C@@H](Nc2ncc(C)c(N(C)C)n2)CC1)c1cc(C(F)(F)F)cc(C(F)(F)F)c1 [Example 3354, N-[3,5-bis(trifluoromethyl)phenyl]-N′-(cis-4-{[4-(dimethylamino)-5-methylpyrimidin-2-yl]amino}cyclohexyl)-N-ethylurea]	> 7.30
CCN(C(=O)N[C@H]1CC[C@@H](Nc2ncc(C)c(N(C)C)n2)CC1)c1cccc(C)c1 [Example 3355, N′-(cis-4-{[4-(dimethylamino)-5-methylpyrimidin-2-yl]amino}cyclohexyl)-N-ethyl-N-(3-methylphenyl)urea]	> 7.30
Cc1cnc(N[C@H]2CC[C@@H](NC(=O)COc3cc(C(F)(F)F)nn3C)CC2)nc1N(C)C [Example 3356, N-(cis-4-{[4-(dimethylamino)-5-methylpyrimidin-2-yl]amino}cyclohexyl)-2-{[1-methyl-3-(trifluoromethyl)-1H-pyrazol-5-yl]oxy}acetamide]	> 7.30
Cc1cnc(N[C@H]2CC[C@@H](NC(=O)COc3cc(C(F)(F)F)ncn3)CC2)nc1N(C)C [Example 3357, N-(cis-4-{[4-(dimethylamino)-5-methylpyrimidin-2-yl]amino}cyclohexyl)-2-{[6-(trifluoromethyl)pyrimidin-4-yl]oxy}acetamide]	< 6.70
CNc1cc(C)nc(N[C@H]2CC[C@@H](NC(=O)COc3ccc(Cl)c(Cl)c3)CC2)n1 [Example 3360, 2-(3,4-dichlorophenoxy)-N-(cis-4-{[4-methyl-6-(methylamino)pyrimidin-2-yl]amino}cycohexyl)acetamide]	> 7.30
CNc1nc(N[C@H]2CC[C@@H](NC(=O)COc3cc(C(F)(F)F)nn3C)CC2)ncc1C [Example 3362, N-(cis-4-{[5-methyl-4-(methylamino)pyrimidin-2-yl]amino}-cyclohexyl)-2-{[1-methyl-3-(trifluoromethyl)-1H-pyrazol-5-yl]oxy}acetamide]	< 6.70
CNc1nc(N[C@H]2CC[C@@H](NC(=O)COc3cc(C(F)(F)F)ncn3)CC2)ncc1C [Example 3363, N-(cis-4-{[5-methyl-4-(methylamino)pyrimidin-2-yl]amino}-cyclohexyl)-2-{[6-(trifluoromethyl)pyrimidin-4-yl]oxy}acetamide]	< 6.70
CNc1nc(N[C@H]2CC[C@@H](NC(=O)COc3cc(C(F)(F)F)n(C)n3)CC2)ncc1C [Example 3364, N-(cis-4-{[5-methyl-4-(methylamino)pyrimidin-2-yl]amino}-cyclohexyl)-2-{[1-methyl-5-(trifluoromethyl)-1H-pyrazol-3-yl]oxy}acetamide]	< 6.70
Cc1cc(CN[C@H]2CC[C@@H](NC(=O)c3ccc(F)c(F)c3)CC2)nc2ccccc12 [Example 3366, 3,4-difluoro-N-(cis-4-{[(4-methylquinolin-2-yl)methyl]amino}cyclohexyl)benzamide]	< 6.70
Cc1cc(N(C)C)nc(N[C@H]2CC[C@@H](NC(=O)c3cccnc3S(=O)(=O)c3ccc(F)cc3)CC2)n1 [Example 3368, N-(cis-4-{[4-(dimethylamino)-6-methylpyrimidin-2-yl]amino}cyclohexyl)-2-[(4-fluorophenyl)sulfonyl]nicotinamide]	6.70 to 7.30
Cc1cc(N(C)C)nc(N[C@H]2CC[C@@H](NC(=O)c3cccnc3S(=O)(=O)c3ccccc3Cl)CC2)n1 [Example 3369, 2-[(2-chlorophenyl)sulfonyl]-N-(cis-4-{[4-(dimethylamino)-6-methylpyrimidin-2-yl]amino}cyclohexyl)nicotinamide]	6.70 to 7.30
Cc1cc(N(C)C)nc(N[C@H]2CC[C@@H](NC(=O)c3cccnc3S(=O)(=O)c3cccc(Cl)c3)CC2)n1 [Example 3370, 2-[(3-chlorophenyl)sulfonyl]-N-(cis-4-{[4-(dimethylamino)-6-methylpyrimidin-2-yl]amino}cyclohexyl)nicotinamide]	6.70 to 7.30
Cc1cc(N(C)C)nc(N[C@H]2CC[C@@H](NC(=O)c3cccnc3S(=O)(=O)c3ccc(Cl)cc3)CC2)n1 [Example 3371, 2-[(4-chlorophenyl)sulfonyl]-N-(cis-4-{[4-(dimethylamino)-6-methylpyrimidin-2-yl]amino}cyclohexyl)nicotinamide]	< 6.70
Cc1cc(N(C)C)nc(N[C@H]2CC[C@@H](NC(=O)c3cccnc3S(=O)(=O)c3ccccc3Br)CC2)n1 [Example 3372, 2-[(2-bromophenyl)sulfonyl]-N-(cis-4-{[4-(dimethylamino)-6-methylpyrimidin-2-yl]amino}cyclohexyl)nicotinamide]	< 6.70
Cc1cc(N(C)C)nc(N[C@H]2CC[C@@H](NC(=O)c3cccnc3S(=O)(=O)c3cccc(Br)c3)CC2)n1 [Example 3373, 2-[(3-bromophenyl)sulfonyl]-N-(cis-4-{[4-(dimethylamino)-6-methylpyrimidin-2-yl]amino}cyclohexyl)nicotinamide]	6.70 to 7.30
Cc1cc(N(C)C)nc(N[C@H]2CC[C@@H](NC(=O)c3cccnc3S(=O)(=O)c3ccc(Br)cc3)CC2)n1 [Example 3374, 2-[(4-bromophenyl)sulfonyl]-N-(cis-4-{[4-(dimethylamino)-6-methylpyrimidin-2-yl]amino}cyclohexyl)nicotinamide]	< 6.70

Continued, values first:

pIC50	SMILES
6.70 to 7.30	Cc1cc(N(C)C)nc(N[C@H]2CC[C@@H](NC(=O)c3cccnc3S(=O)(=O)c3ccccc3C)CC2)n1 [Example 3375, N-(cis-4-{[4-(dimethylamino)-6-methylpyrimidin-2-yl]amino}cyclohexyl)-2-[(2-methylphenyl)sulfonyl]nicotinamide]
< 6.70	Cc1cccc(S(=O)(=O)c2ncccc2C(=O)N[C@H]2CC[C@@H](Nc3nc(C)cc(N(C)C)n3)CC2)c1 [Example 3376, N-(cis-4-{[4-(dimethylamino)-6-methylpyrimidin-2-yl]amino}cyclohexyl)-2-[(3-methylphenyl)sulfonyl]nicotinamide]
6.70 to 7.30	Cc1ccc(S(=O)(=O)c2ncccc2C(=O)N[C@H]2CC[C@@H](Nc3nc(C)cc(N(C)C)n3)CC2)cc1 [Example 3377, N-(cis-4-{[4-(dimethylamino)-6-methylpyrimidin-2-yl]amino}cyclohexyl)-2-[(4-methylphenyl)sulfonyl]nicotinamide]
< 6.70	COc1ccccc1S(=O)(=O)c1ncccc1C(=O)N[C@H]1CC[C@@H](Nc2nc(C)cc(N(C)C)n2)CC1 [Example 3378, N-(cis-4-{[4-(dimethylamino)-6-methylpyrimidin-2-yl]amino}cyclohexyl)-2-[(2-methoxyphenyl)sulfonyl]-nicotinamide]
< 6.70	COc1cccc(S(=O)(=O)c2ncccc2C(=O)N[C@H]2CC[C@@H](Nc3nc(C)cc(N(C)C)n3)CC2)c1 [Example 3379, N-(cis-4-{[4-(dimethylamino)-6-methylpyrimidin-2-yl]amino}cyclohexyl)-2-[(3-methoxyphenyl)sulfonyl]-nicotinamide]
< 6.70	COc1ccc(S(=O)(=O)c2ncccc2C(=O)N[C@H]2CC[C@@H](Nc3nc(C)cc(N(C)C)n3)CC2)cc1 [Example 3380, N-(cis-4-{[4-(dimethylamino)-6-methylpyrimidin-2-yl]amino}cyclohexyl)-2-[(4-methoxyphenyl)sulfonyl]-nicotinamide]
< 6.70	Cc1cc(N(C)C)nc(N[C@H]2CC[C@@H](NC(=O)c3cccnc3S(=O)(=O)c3ccccc3C(F)(F)F)CC2)n1 [Example 3381, N-(cis-4-{[4-(dimethylamino)-6-methylpyrimidin-2-yl]amino}cyclohexyl)-2-{[2-(trifluoromethyl)phenyl]-sulfonyl}nicotinamide]
> 7.30	Cc1cc(N[C@H]2CC[C@@H](NC(=O)c3ccc(OC(F)(F)F)cc3)CC2)nc2ccccc12 [Example 3382, N-{cis-4-[(4-methylquinolin-2-yl)amino]cyclohexyl}-4-(trifluoromethoxy)benzamide]

Same assay, conditions: FLIPR/FDSS, antagonist activity vs 50 nM MCH; class by percent of control at 10^−7 M or IC50; table after the classification; read-out: class

pIC50	SMILES
> 7.30	Cc1cc(N(C)C)nc(N[C@H]2CC[C@@H](NC(=O)c3ccc(Cl)c(F)c3)CC2)n1 [Example 3383, 4-Chloro-N-[cis-4-(4-dimethylamino6-methyl-pyrimidin-2-ylamino)-cyclohexyl]3-fluoro-benzamide hydrochloride]
> 7.30	Cc1cc(N(C)C)nc(N[C@H]2CC[C@@H](NC(=O)c3cc(F)cc(Cl)c3)CC2)n1 [Example 3384, 3-Chloro-N-[cis-4-(4-dimethylamino6-methyl-pyrimidin-2-ylamino)-cyclohexyl]5-fluoro-benzamide hydrochloride]
> 7.30	Cc1cc(N(C)C)nc(N[C@H]2CC[C@@H](NC(=O)c3cc(F)c(F)c(F)c3)CC2)n1 [Example 3385, N-[cis-4-(4-Dimethylamino-6-methyl-pyrimidin-2-ylamino)-cyclohexyl]-3,4,5-trifluoro-benzamide hydrochloride]
> 7.30	CNc1nc(N[C@H]2CC[C@@H](NC(=O)c3ccc(F)c(Cl)c3)CC2)ncc1C [Example 3386, 3-Chloro-4-fluoro-N-[cis-4-(5-methyl-4-methylamino-pyrimidin-2-ylamino)-cyclohexyl]-benzamide hydrochloride]
> 7.30	Cc1cnc(N[C@H]2CC[C@@H](NC(=O)c3ccc(Cl)c(F)c3)CC2)nc1N(C)C [Example 3387, 4-Chloro-N-[cis-4-(4-dimethylamino5-methyl-pyrimidin-2-ylamino)-cyclohexyl]3-fluoro-benzamide hydrochloride]
> 7.30	Cc1cnc(N[C@H]2CC[C@@H](NC(=O)c3cc(F)cc(Cl)c3)CC2)nc1N(C)C [Example 3388, 3-Chloro-N-[cis-4-(4-dimethylamino5-methyl-pyrimidin-2-ylamino)-cyclohexyl]5-fluoro-benzamide hydrochloride]
> 7.30	Cc1cnc(N[C@H]2CC[C@@H](NC(=O)c3cc(F)c(F)c(F)c3)CC2)nc1N(C)C [Example 3389, N-[cis-4-(4-Dimethylamino-5-methyl-pyrimidin-2-ylamino)-cyclohexyl]-3,4,5-trifluoro-benzamide hydrochloride]
